Experimental findings from patent US12070452B2, “Compounds targeting HSP110 protein for cancer treatment” (INSERM (Institut National de la Santé et de la Recherche …, priority 2018, dated 2024) are described below.

The structures appear in SMILES notation.

Experiment [1] deals with mouse colon cancer CT-26 cells. Briefly: Tumor growth, syngeneic CT-26 model in Balb/c mice. The format is in vivo. The note with it: CT-26, 5 mg/Kg intraperitoneally every three days. The method, then: FIG. 6A: Tumor volume monitoring of CT26 cells in Balb/c mice control-treated (Ctrl—line with circle) and treated with the compound 33 (5 mg/kg—line with square). Animals were treated by intraperitoneally injection every three days. (Abscissa: Days from 0 to 16 in day; Ordinate: Tumor volume in mm^3 from 0 to 200 (scale 500))
(§1) Two different colorectal mouse models were used: a syngeneic model for which mouse colon cancer CT-26 cells were injected into Balb/c mice and a NOD/SCID model in which mice were implanted with human colorectal cancer HCT116 cells (FIG. 4 A-B). When the tumor reached a size of −2 mm, mice were treated intraperitoneally with the compound 33 at 5 mg/Kg (BALB/c n=11, NOD SCID n=6) or corn oil 5% DMSO (BALB/c n=10, NOD SCID n=6), every three days until the end of the experiment. The compound 33 was dissolved in DMSO, then diluted 20 times in corn oil (Sigma Aldrich-C8267) and sterilized by filtration with PTFE membrane Millex 0.2 μm (Millipore-SLFG025LS). Tumors were analyzed before reaching 2000 mm3. Treatment by compound 33 induces a decrease in tumor growth of 40% and 60% in the Balb/c and NOD mice, respectively (FIGS. 6A and 6B).

The test system of experiment [2] is tumor-infiltrating macrophages. Briefly: Macrophage M1/M2-like markers in tumor slides, NOD/SCID HCT116 xenograft model. The format is in vivo, mouse. The method, then: Statistical analysis has been performed by ANOVA (***=p=0.0019). FIG. 9B: M2-like markers pSTAT6 and ALOX15 were determined in tumor slides from NOD mice bearing HCT116 xenografts, treated or not with the compound 33 (related to formula (II)). Statistical analysis has been performed by ANOVA (***: p=0.0481). […] Anti-p-STAT1 (1/200; polyclonal, Cell Signaling), anti-SOCS1 (Suppressor of Cytokine Signaling protein 1, 1/200; polyclonal, Santa Cruz), and anti-NOS2 (Nitric Oxide Synthase 2, 1/200; polyclonal Santa Cruz) antibodies were used for M1-like macrophage markers. Anti-pSTAT6 (1/200; polyclonal Santa Cruz), anti-arginase-1 (1/200; polyclonal Santa Cruz) and anti-ALOX15 (Arachidonate 15-LipOXygenase, 1/200; monoclonal Santa Cruz) antibodies were used for M2-like macrophage markers. Primary antibodies were detected using Alexa fluor 488 or Alexa fluor 568-coupled secondary antibodies (1/500, Invitrogen). Nuclei were stained with 10 μl of ProLong Gold Antifade Mountant with DAPI (Molecular Probes). The same protocol was used for NOD/SCID mice except that mice were killed after 16 days after HCT116 cells injection. For the Balb/c model, mice were sacrificed at day 62 (day 1 being the first day of treatment). […] Especially the pSTAT1 relative expression measured is about 1.5 for compound 33 compared to 1.0 for the control, the NOS2 relative expression measured is about 1 for compound 33 compared to 2.5 for the control (FIG. 8A) in CT-26-Balb/c mice model. The pSTAT1 relative expression measured is about 1.5 for compound 33 compared to 0 for the control and the NOS2 relative expression measured is about 20 for compound 33 compared to 2 for the control (FIG. 8B) in NOD/SCID mice model.

The test system of experiment [3] is tumor-infiltrating macrophages. In words: Macrophage M1/M2-like markers in tumor slides, CT-26-Balb/c model. It is filed as in vivo, mouse. Here is the method:
FIG. 8A: Pro-inflammatory M1-like macrophage markers pSTAT1 and NOS2 determined in tumor slides from CT-26-Balb/c mice model. Animals were treated or not every 3 days with the compound 33 (5 mg/Kg) Statistical analysis has been performed by ANOVA (***=p=0.0051). […] FIG. 9A: Anti-inflammatory macrophage M2-like markers Arg1 and pSTAT6 determined in tumor slides from CT-26-Ballb/c mice model. Animals were treated or not every 3 days with the compound 33 (5 mg/Kg). Statistical analysis has been performed by ANOVA (***=p=0.0031). […] Anti-p-STAT1 (1/200; polyclonal, Cell Signaling), anti-SOCS1 (Suppressor of Cytokine Signaling protein 1, 1/200; polyclonal, Santa Cruz), and anti-NOS2 (Nitric Oxide Synthase 2, 1/200; polyclonal Santa Cruz) antibodies were used for M1-like macrophage markers. Anti-pSTAT6 (1/200; polyclonal Santa Cruz), anti-arginase-1 (1/200; polyclonal Santa Cruz) and anti-ALOX15 (Arachidonate 15-LipOXygenase, 1/200; monoclonal Santa Cruz) antibodies were used for M2-like macrophage markers. Primary antibodies were detected using Alexa fluor 488 or Alexa fluor 568-coupled secondary antibodies (1/500, Invitrogen). Nuclei were stained with 10 μl of ProLong Gold Antifade Mountant with DAPI (Molecular Probes). The same protocol was used for NOD/SCID mice except that mice were killed after 16 days after HCT116 cells injection. For the Balb/c model, mice were sacrificed at day […] (day 1 being the first day of treatment). […] Especially the pSTAT1 relative expression measured is about 1.5 for compound 33 compared to 1.0 for the control, the NOS2 relative expression measured is about 1 for compound 33 compared to 2.5 for the control (FIG. 8A) in CT-26-Balb/c mice model. The pSTAT1 relative expression measured is about 1.5 for compound 33 compared to 0 for the control and the NOS2 relative expression measured is about 20 for compound 33 compared to 2 for the control (FIG. 8B) in NOD/SCID mice model.

A further experiment has as its system CT26 tumors. Briefly: Immunofluorescence of P-STAT3 and cleaved caspase-3 in CT26 tumor slides (Balb/c). The format is in vivo, mouse.
Excerpt: FIG. 7A: Immunofluorescence assay of P-STAT3 (Phosphorylated STAT3) in CT26 cells in Balb/c mice tumors treated with VEH (non-relevant compound which is DMSO) (column on the left) or with compound 33 (column on the right). […] Statistical analysis has been performed by ANOVA (*=p=0.0019).
FIG. 7B: Immunofluorescence assay of cleaved caspase-3 (C3C) in CT26 cells in Balb/c mice tumors treated with VEH (column on the left) or with compound 33 (column on the right). […] (Ordinate: Caspase-3 cleaved relative fluorescence in percentage). Statistical analysis has been performed by ANOVA (***=p=0.0003)
as §1, with “Treatment by compound 33 induces a decrease in tumor growth of 40% and 60% in the Balb/c and NOD mice, respectively (FIGS. 6A and 6B).” left out

The mark [4] stands for this setting: NOD/SCID HCT116 model, control 1.
The mark [5] stands for this setting: CT-26-Balb/c model, control 1.0.

In the case of `COc1ccc(-c2ncc(-c3ncc(-c4cc(OC)c(OC)c(OC)c4)cc3/C=C/c3ccccc3)cc2C)cc1OC` [compound 33, (E)-6′-(3,4-Dimethoxyphenyl)-5′-methyl-3-styryl-5-(3,4,5-trimethoxyphenyl)-2,3′-bipyridine], the “decrease in tumor growth” value in experiment [1] turned out to be 40%. In addition, the “SOCS1 expression (M1 marker)” value in experiment [2] (NOD/SCID (xenograft) model) and in experiment [3] (Balb/c (syngeneic) model) was “increase” in each case. For the same compound, the “pSTAT1 relative expression (M1 marker)” value in experiment [2] (NOD/SCID HCT116 model, control 0) is reported as “about 1.5”; in experiment [3] (CT-26-Balb/c model, 5 mg/Kg, control 1.0), “about 1.5”. Also, the “ALOX15 relative expression (M2 marker)” value in experiment [2] (setting [4]) is on record as “about 0”. Further, the “pSTAT6 relative expression (M2 marker)” value is given as “about 0” in experiment [2] (setting [4]) and “about 0.5” in experiment [3] (setting [5]). The “NOS2 relative expression (M1 marker)” value is reported as “about 20” in experiment [2] (NOD/SCID HCT116 model, control 2) and “about 1” in experiment [3] (CT-26-Balb/c model, 5 mg/Kg, control 2.5 as printed). The “Arg1 relative expression (M2 marker)” value in experiment [3] (setting [5]) is “about 0.5”. Further, the “P-STAT3 in tumor slides (relative fluorescence)” value in the experiment with CT26 tumors (CT26 tumors in Balb/c mice, control 100%) was 50%. Moreover, in the experiment on CT26 tumors (CT26 tumors, Balb/c model), the “tumor cell apoptosis (cleaved caspase-3 staining)” value is on record as “increase in tumor cell apoptosis”.
